Measurements taken from publication PMC4322352, “Sirtinol Inhibits Neutrophil Elastase Activity and Attenuates Lipopolysaccharide-Mediated Acute Lung Injury in Mice” (Scientific Reports, 2015).

Target: T1, human neutrophil elastase (HNE) (Homo sapiens, UniProt P08246)
T1 construct: gene ELANE
T1 sequence (P08246 30-247): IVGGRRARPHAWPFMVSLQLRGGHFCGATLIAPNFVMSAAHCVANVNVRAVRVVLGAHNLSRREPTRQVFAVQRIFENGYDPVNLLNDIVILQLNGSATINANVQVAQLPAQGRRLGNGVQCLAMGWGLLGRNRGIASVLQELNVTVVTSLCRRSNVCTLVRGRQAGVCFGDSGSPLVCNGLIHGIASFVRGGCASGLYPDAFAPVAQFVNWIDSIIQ
Experiment: chromogenic enzymatic assay with purified HNE, absorbance at […] nm
Format: biochemical

`CC(NC(=O)c1ccccc1/N=C/c1c(O)ccc2ccccc12)c1ccccc1` (stereo not shown) [Sirtinol, 2-[(2-hydroxynaphthalen-1-ylmethylene)amino]-N-(1-phenethyl) benzamide] gave an IC50 of 8.4 ± 0.53 µM.
